Reference: ChEMBL document CHEMBL4304804, “Synthesis and biological evaluation of calycanthaceous alkaloid analogs” (Bioorg Med Chem, 2019)
Converted amounts (≈) assume the structure as drawn. The source made the active and inactive calls. No cut-off for these calls is given here.

Assays:
Escherichia coli = assay: Antibacterial activity against Escherichia coli assessed as reduction in bacterial cell growth incubated for 24 hrs by filter paper assay; type: functional
Pseudomonas aeruginosa = assay: Antibacterial activity against Pseudomonas aeruginosa assessed as reduction in bacterial cell growth incubated for 24 hrs by filter paper assay; type: functional
Ralstonia solanacearum = assay: Antibacterial activity against Ralstonia solanacearum assessed as reduction in bacterial cell growth incubated for 24 hrs by filter paper assay; type: functional
Verticillium dahliae = assay: Antifungal activity against Verticillium dahliae assessed as reduction in fungal cell growth incubated for 48 hrs by serial dilution method; type: functional
[1] = tested on: Fusarium oxysporum f. sp. vasinfectum; assay: Antifungal activity against Fusarium oxysporum sp. vasinfectum assessed as reduction in fungal cell growth incubated for 48 hrs by serial dilution method; type: functional
Cytospora = assay: Antifungal activity against Cytospora juglandis assessed as reduction in fungal cell growth incubated for 48 hrs by serial dilution method; type: functional
Aspergillus flavus = assay: Antifungal activity against Aspergillus flavus assessed as reduction in fungal cell growth incubated for 48 hrs by serial dilution method; type: functional
Penicillium citrinum = assay: Antifungal activity against Penicillium citrinum assessed as reduction in fungal cell growth incubated for 48 hrs by serial dilution method; type: functional
Fusarium oxysporum = assay: Antifungal activity against Fusarium oxysporum assessed as reduction in fungal cell growth incubated for 48 hrs by serial dilution method; type: functional
[2] = tested on: Colletotrichum orbiculare; assay: Antifungal activity against Colletotrichum orbiculare assessed as reduction in fungal cell growth incubated for 48 hrs by serial dilution method; type: functional
Aspergillus niger = assay: Antifungal activity against Aspergillus niger assessed as reduction in fungal cell growth incubated for 48 hrs by serial dilution method; type: functional
Curvularia lunata = assay: Antifungal activity against Curvularia lunata assessed as reduction in fungal cell growth incubated for 48 hrs by serial dilution method; type: functional
Bacillus cereus = assay: Antibacterial activity against Bacillus cereus assessed as reduction in bacterial cell growth incubated for 24 hrs by filter paper assay; type: functional
Staphylococcus aureus = assay: Antibacterial activity against Staphylococcus aureus assessed as reduction in bacterial cell growth incubated for 24 hrs by filter paper assay; type: functional
Candida = assay: Antifungal activity against […] assessed as reduction in fungal cell growth incubated for 48 hrs by serial dilution method; type: functional
Cryptococcus neoformans = assay: Antifungal activity against Cryptococcus neoformans assessed as reduction in fungal cell growth incubated for 48 hrs by serial dilution method; type: functional
Candida tropicalis = assay: Antifungal activity against Candida tropicalis assessed as reduction in fungal cell growth incubated for 48 hrs by serial dilution method; type: functional
Acetylcholinesterase = Acetylcholinesterase (Electrophorus electricus, UniProt O42275); assay: Inhibition of electric eel AChE by Ellman's colorimetry
Sequence of Acetylcholinesterase (O42275 whole entry): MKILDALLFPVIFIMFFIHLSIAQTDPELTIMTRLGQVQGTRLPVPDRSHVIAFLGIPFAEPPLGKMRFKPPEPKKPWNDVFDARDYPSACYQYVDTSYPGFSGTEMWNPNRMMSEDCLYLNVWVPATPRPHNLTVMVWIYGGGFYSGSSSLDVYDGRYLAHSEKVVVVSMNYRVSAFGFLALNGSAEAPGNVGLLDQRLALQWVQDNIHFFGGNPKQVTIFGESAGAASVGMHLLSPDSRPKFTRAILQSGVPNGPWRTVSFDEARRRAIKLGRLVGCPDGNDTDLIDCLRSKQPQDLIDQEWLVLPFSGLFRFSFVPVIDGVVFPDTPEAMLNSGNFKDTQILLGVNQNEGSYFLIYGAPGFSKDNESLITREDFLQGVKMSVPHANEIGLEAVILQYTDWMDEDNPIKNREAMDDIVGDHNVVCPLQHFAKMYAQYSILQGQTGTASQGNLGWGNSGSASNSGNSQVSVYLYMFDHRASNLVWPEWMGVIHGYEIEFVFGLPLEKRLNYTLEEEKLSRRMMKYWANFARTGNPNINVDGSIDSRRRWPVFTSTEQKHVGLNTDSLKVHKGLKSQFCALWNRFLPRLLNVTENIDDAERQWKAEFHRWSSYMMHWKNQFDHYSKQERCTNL

Row | Molecule | MIC (Escherichia coli) | MIC (Pseudomonas aeruginosa) | MIC (Ralstonia solanacearum) | MIC (Verticillium dahliae) | MIC [1] | MIC (Cytospora) | MIC (Aspergillus flavus) | MIC (Penicillium citrinum) | MIC (Fusarium oxysporum) | MIC [2] | MIC (Aspergillus niger) | MIC (Curvularia lunata) | MIC (Bacillus cereus) | MIC (Staphylococcus aureus) | MIC (Candida) | MIC (Cryptococcus neoformans) | MIC (Candida tropicalis) | IC50 (Acetylcholinesterase) [µM]
1 | CN[C@@H]1[C@H](O[C@H]2[C@H](O[C@H]3[C@H](O)[C@@H](O)[C@H](N=C(N)N)[C@@H](O)[C@@H]3N=C(N)N)O[C@@H](C)[C@]2(O)C=O)O[C@@H](CO)[C@H](O)[C@H]1O [STREPTOMYCIN] | 31.2 µg/mL (≈ 53.7 µM) | inactive | 250 µg/mL (≈ 430 µM) |  |  |  |  |  |  |  |  |  |  |  |  |  |  | 
2 | Cc1ccccc1CN1c2ccccc2C2(Cc3ccccc3C)CCN(C(=O)C(F)(F)F)C12 (centres undefined) | inactive | inactive | inactive | 125 µg/mL (≈ 269 µM) | inactive | 250 µg/mL (≈ 538 µM) | 250 µg/mL (≈ 538 µM) | inactive | 250 µg/mL (≈ 538 µM) | 250 µg/mL (≈ 538 µM) | 250 µg/mL (≈ 538 µM) | 250 µg/mL (≈ 538 µM) | inactive | inactive | 250 µg/mL (≈ 538 µM) | inactive | 125 µg/mL (≈ 269 µM) | 7.08
3 | CCCC(=O)N1CCC2(Cc3cccc(C)c3)c3ccccc3N(Cc3cccc(C)c3)C12 (centres undefined) | 250 µg/mL (≈ 570 µM) | 250 µg/mL (≈ 570 µM) | 250 µg/mL (≈ 570 µM) | 62.5 µg/mL (≈ 142 µM) | inactive | 62.5 µg/mL (≈ 142 µM) | 250 µg/mL (≈ 570 µM) | inactive | 125 µg/mL (≈ 285 µM) | 250 µg/mL (≈ 570 µM) | 125 µg/mL (≈ 285 µM) | inactive | 250 µg/mL (≈ 570 µM) | 250 µg/mL (≈ 570 µM) | 250 µg/mL (≈ 570 µM) | inactive | 125 µg/mL (≈ 285 µM) | 6.52
4 | COC(=O)Nc1nc2ccccc2[nH]1 [CARBENDAZIM] |  |  |  | 7.81 µg/mL (≈ 40.8 µM) | 62.5 µg/mL (≈ 327 µM) | 31.2 µg/mL (≈ 163 µM) | 7.81 µg/mL (≈ 40.8 µM) | 1.96 µg/mL (≈ 10.3 µM) | 125 µg/mL (≈ 654 µM) | 125 µg/mL (≈ 654 µM) | inactive | 250 µg/mL (≈ 1310 µM) |  |  |  |  |  | 
5 | C[C@@H]1[C@H](O)[C@@H](C)/C=C/C=C/C=C/C=C/C=C/C=C/C=C/[C@H](O[C@@H]2O[C@H](C)[C@@H](O)[C@H](N)[C@@H]2O)C[C@@H]2O[C@](O)(C[C@@H](O)C[C@@H](O)[C@H](O)CC[C@@H](O)C[C@@H](O)CC(=O)O[C@H]1C)C[C@H](O)[C@H]2C(=O)O [AMPHOTERICIN B] |  |  |  |  |  |  |  |  |  |  |  |  |  |  | 250 µg/mL (≈ 271 µM) | 1.96 µg/mL (≈ 2.12 µM) |  | 
6 | OC(Cn1cncn1)(Cn1cncn1)c1ccc(F)cc1F [FLUCONAZOLE] |  |  |  |  |  |  |  |  |  |  |  |  |  |  | 62.5 µg/mL (≈ 204 µM) |  | 250 µg/mL (≈ 816 µM) | 
7 | CCCCC(=O)N1CCC2(Cc3ccccc3C)c3ccccc3N(Cc3ccccc3C)C12 (centres undefined) | 250 µg/mL (≈ 552 µM) | 250 µg/mL (≈ 552 µM) | 250 µg/mL (≈ 552 µM) | 31.2 µg/mL (≈ 69 µM) | inactive | 250 µg/mL (≈ 552 µM) | 250 µg/mL (≈ 552 µM) | 250 µg/mL (≈ 552 µM) | 125 µg/mL (≈ 276 µM) | inactive | 250 µg/mL (≈ 552 µM) | inactive | 250 µg/mL (≈ 552 µM) | 250 µg/mL (≈ 552 µM) | 250 µg/mL (≈ 552 µM) | inactive | 125 µg/mL (≈ 276 µM) | 328
8 | CCCCCCC(=O)N1CCC2(Cc3ccccc3C)c3ccccc3N(Cc3ccccc3C)C12 (centres undefined) | 250 µg/mL (≈ 520 µM) | 250 µg/mL (≈ 520 µM) | 125 µg/mL (≈ 260 µM) | 62.5 µg/mL (≈ 130 µM) | 250 µg/mL (≈ 520 µM) | 62.5 µg/mL (≈ 130 µM) | 250 µg/mL (≈ 520 µM) | 125 µg/mL (≈ 260 µM) | 125 µg/mL (≈ 260 µM) | 250 µg/mL (≈ 520 µM) | 250 µg/mL (≈ 520 µM) | 125 µg/mL (≈ 260 µM) | inactive | inactive | 250 µg/mL (≈ 520 µM) | inactive | 250 µg/mL (≈ 520 µM) | 90.8
9 | Cc1cccc(CN2c3ccccc3C3(Cc4cccc(C)c4)CCN(C(=O)C(F)(F)F)C23)c1 (centres undefined) | inactive | inactive | inactive | inactive | inactive | 250 µg/mL (≈ 538 µM) | 250 µg/mL (≈ 538 µM) | inactive | 250 µg/mL (≈ 538 µM) | inactive | inactive | inactive | inactive | inactive | inactive | inactive | inactive | 3.38
10 | CC(=O)N1CCCC2(O)c3ccccc3N(C)C12 (centres undefined) | inactive | 250 µg/mL (≈ 1010 µM) | 250 µg/mL (≈ 1010 µM) | inactive | inactive | inactive | inactive | inactive | inactive | inactive | inactive | inactive | inactive | 250 µg/mL (≈ 1010 µM) | inactive | inactive | inactive | 1.22
11 | Cc1ccccc1CN1c2ccccc2C2(Cc3ccccc3C)CCN(C(=O)c3ccccc3C)C12 (centres undefined) | inactive | inactive | 125 µg/mL (≈ 257 µM) | 250 µg/mL (≈ 514 µM) | 250 µg/mL (≈ 514 µM) | 250 µg/mL (≈ 514 µM) | 250 µg/mL (≈ 514 µM) | 250 µg/mL (≈ 514 µM) | 250 µg/mL (≈ 514 µM) | inactive | 125 µg/mL (≈ 257 µM) | 62.5 µg/mL (≈ 128 µM) | 250 µg/mL (≈ 514 µM) | 250 µg/mL (≈ 514 µM) | 250 µg/mL (≈ 514 µM) | inactive | 250 µg/mL (≈ 514 µM) | 229
12 | Cc1cccc(CN2c3ccccc3C3(Cc4cccc(C)c4)CCN(C(=O)COc4ccccc4)C23)c1 (centres undefined) | inactive | inactive | inactive | 250 µg/mL (≈ 497 µM) | 250 µg/mL (≈ 497 µM) | 125 µg/mL (≈ 249 µM) | 250 µg/mL (≈ 497 µM) | 250 µg/mL (≈ 497 µM) | 250 µg/mL (≈ 497 µM) | 250 µg/mL (≈ 497 µM) | 250 µg/mL (≈ 497 µM) | inactive | 250 µg/mL (≈ 497 µM) | inactive | 250 µg/mL (≈ 497 µM) | inactive | 125 µg/mL (≈ 249 µM) | 6.25
13 | CCCC(=O)N1CCCC2(O)c3ccccc3N(C)C12 (centres undefined) | inactive | 250 µg/mL (≈ 911 µM) | 31.2 µg/mL (≈ 114 µM) | 250 µg/mL (≈ 911 µM) | inactive | inactive | inactive | inactive | inactive | inactive | inactive | inactive | inactive | inactive | inactive | inactive | inactive | 122
14 | COc1ccc(C(=O)N2CCC3(Cc4cccc(C)c4)c4ccccc4N(Cc4cccc(C)c4)C23)cc1 (centres undefined) | inactive | inactive | inactive | 125 µg/mL (≈ 249 µM) | inactive | 250 µg/mL (≈ 497 µM) | 250 µg/mL (≈ 497 µM) | 250 µg/mL (≈ 497 µM) | 250 µg/mL (≈ 497 µM) | inactive | 250 µg/mL (≈ 497 µM) | inactive | inactive | inactive | inactive | inactive | inactive | 2.81
15 | Cc1ccccc1CN1c2ccccc2C2(Cc3ccccc3C)CCN(C(=O)COc3ccccc3)C12 (centres undefined) | inactive | inactive | inactive | 250 µg/mL (≈ 497 µM) | inactive | 250 µg/mL (≈ 497 µM) | 250 µg/mL (≈ 497 µM) | 125 µg/mL (≈ 249 µM) | 250 µg/mL (≈ 497 µM) | 250 µg/mL (≈ 497 µM) | 250 µg/mL (≈ 497 µM) | inactive | 250 µg/mL (≈ 497 µM) | inactive | 250 µg/mL (≈ 497 µM) | inactive | 250 µg/mL (≈ 497 µM) | 787
16 | CCCCC(=O)N1CCCC2(O)c3ccccc3N(C)C12 (centres undefined) | 250 µg/mL (≈ 867 µM) | 250 µg/mL (≈ 867 µM) | 62.5 µg/mL (≈ 217 µM) | 250 µg/mL (≈ 867 µM) | inactive | inactive | inactive | inactive | inactive | inactive | inactive | inactive | inactive | 125 µg/mL (≈ 433 µM) | inactive | inactive | inactive | 27.4
17 | Cc1cccc(CN2c3ccccc3C3(Cc4cccc(C)c4)CCN(C(=O)C(C)C)C23)c1 (centres undefined) | 250 µg/mL (≈ 570 µM) | inactive | inactive | 250 µg/mL (≈ 570 µM) | inactive | 250 µg/mL (≈ 570 µM) | 250 µg/mL (≈ 570 µM) | inactive | 125 µg/mL (≈ 285 µM) | 250 µg/mL (≈ 570 µM) | 250 µg/mL (≈ 570 µM) | inactive | 15.6 µg/mL (≈ 35.6 µM) | inactive | 250 µg/mL (≈ 570 µM) | inactive | 250 µg/mL (≈ 570 µM) | 13.6
18 | N#Cc1c(Cl)c(Cl)c(Cl)c(C#N)c1Cl [CHLOROTHALONIL] |  |  |  | 31.2 µg/mL (≈ 118 µM) | 250 µg/mL (≈ 940 µM) | 62.5 µg/mL (≈ 235 µM) | 7.81 µg/mL (≈ 29.4 µM) | 15.6 µg/mL (≈ 58.8 µM) | 62.5 µg/mL (≈ 235 µM) | 250 µg/mL (≈ 940 µM) | 15.6 µg/mL (≈ 58.8 µM) | 125 µg/mL (≈ 470 µM) |  |  |  |  |  | 
19 | GENTAMICIN | 1.96 µg/mL | 1.96 µg/mL | 62.5 µg/mL |  |  |  |  |  |  |  |  |  |  |  |  |  |  | 
20 | CC1(C)S[C@@H]2[C@H](NC(=O)Cc3ccccc3)C(=O)N2[C@H]1C(=O)O [PENICILLIN G] |  |  |  |  |  |  |  |  |  |  |  |  | 7.81 µg/mL (≈ 23.4 µM) | 15.6 µg/mL (≈ 46.7 µM) |  |  |  | 
